Data taken from ChEMBL document CHEMBL1697723, “A predictive ligand-based Bayesian model for human drug-induced liver injury” (Drug Metab Dispos, 2010).
Starred links: 1 amine or outer side, 2 acyl side, 3 side chain; linkers in the order of their positions; H or OH if unused. Positions of bridges follow the written chain, without caps; N, C: chain ends. Non-standard residues stand in square brackets, D forms with d. Residues, ends and D or L forms follow the SMILES beside them. Adda = CO[C@@H](Cc1ccccc1)[C@@H](C)/C=C(C)/C=C/[C@H](N[*:1])[C@H](C)C(=O)[*:2]; dAsp(3S-Me) = C[C@H](C(=O)[*:3])[C@@H](N[*:1])C(=O)[*:2]; d(γGlu) = O=C(O)[C@@H](CCC(=O)[*:2])N[*:1]; NMeDha = C=C(NC)C(=O)O

tested on: Hepatotoxicity; experiment: Human drug-induced liver injury (DILI) modelling dataset from Ekins et al; settings: not given

Structure (SMILES)	Hepatotoxicity
COC(=O)C(c1ccccc1)C1CCCCN1 (stereo unspecified) [METHYLPHENIDATE]	DILI positive (test set)
CC[C@@H](CO)NC(=O)[C@@H]1C=C2c3cccc4c3c(cn4C)C[C@H]2N(C)C1.O=C(O)/C=C\C(=O)O [METHYSERGIDE MALEATE]	DILI negative (training set)
Cc1ccccc1N1C(=O)c2cc(S(N)(=O)=O)c(Cl)cc2NC1C (stereo unspecified) [METOLAZONE]	DILI positive (test set)
Cc1ncc([N+](=O)[O-])n1CCO [METRONIDAZOLE]	DILI positive (training set)
CN1CCN2c3ccccc3Cc3ccccc3C2C1 (stereo unspecified) [MIANSERIN]	DILI positive (test set)
COCC(=O)O[C@]1(CCN(C)CCCc2nc3ccccc3[nH]2)CCc2cc(F)ccc2[C@@H]1C(C)C [MIBEFRADIL]	DILI negative (test set)
Clc1ccc(COC(Cn2ccnc2)c2ccc(Cl)cc2Cl)c(Cl)c1 (stereo unspecified) [MICONAZOLE]	DILI negative (training set)
C=C1C(=O)N[C@H](C)C(=O)N[C@@H](CC(C)C)C(=O)N[C@@H](C(=O)O)[C@H](C)C(=O)N[C@@H](CCCNC(=N)N)C(=O)N[C@@H](/C=C/C(C)=C/[C@H](C)[C@H](Cc2ccccc2)OC)[C@H](C)C(=O)N[C@@H](C(=O)O)CCC(=O)N1C [MICROCYSTIN-LR] (R[Adda][d(γGlu)][NMeDha][dA]L[dAsp(3S-Me)]-OH; lactam N-7)	DILI positive (test set)
CN(C)c1ccc(O)c2c1C[C@H]1C[C@H]3[C@H](N(C)C)C(O)=C(C(N)=O)C(=O)[C@@]3(O)C(O)=C1C2=O.Cl [MINOCYCLINE HYDROCHLORIDE]	DILI positive (test set)
Cl.Cl.O=C1c2c(O)ccc(O)c2C(=O)c2c(NCCNCCO)ccc(NCCNCCO)c21 [MITOXANTRONE HYDROCHLORIDE]	DILI positive (training set)
CCc1c(C)[nH]c2c1C(=O)C(CN1CCOCC1)CC2.Cl (stereo unspecified) [MOLINDONE HYDROCHLORIDE]	DILI positive (training set)
C[C@@H]1C[C@H]2[C@@H]3CCC4=CC(=O)C=C[C@]4(C)[C@@]3(Cl)[C@@H](O)C[C@]2(C)[C@@]1(OC(=O)c1ccco1)C(=O)CCl [MOMETASONE FUROATE]	DILI negative (test set)
C[C@H]1C(=O)O[C@@H]2CCN3CC=C(COC(=O)[C@](C)(O)[C@]1(C)O)[C@H]23 [MONOCROTALINE]	DILI positive (training set)
CC(C)(O)c1ccccc1CC[C@@H](SCC1(CC(=O)O)CC1)c1cccc(/C=C/c2ccc3ccc(Cl)cc3n2)c1 [MONTELUKAST]	DILI negative (training set)
CCOC(=O)Nc1ccc2c(c1)N(C(=O)CCN1CCOCC1)c1ccccc1S2.Cl [MORICIZINE HYDROCHLORIDE]	DILI positive (test set)
CO[C@@]1(NC(=O)C(C(=O)[O-])c2ccc(O)cc2)C(=O)N2C(C(=O)[O-])=C(CSc3nnnn3C)CO[C@@H]21.[Na+].[Na+] (stereo partly specified) [MOXALACTAM DISODIUM]	DILI negative (test set)
CN(C)N=O [N-NITROSODIMETHYLAMINE]	DILI positive (test set)
CC(C)(C)NCC(O)COc1cccc2c1CC(O)C(O)C2 (stereo unspecified) [NADOLOL]	DILI negative (training set)
CCOc1ccc2ccccc2c1C(=O)N[C@@H]1C(=O)N2[C@@H]1SC(C)(C)[C@@H]2C(=O)[O-].O.[Na+] [NAFCILLIN SODIUM]	DILI negative (test set)

Structure (SMILES)	Hepatotoxicity
CCn1cc(C(=O)O)c(=O)c2ccc(C)nc21 [NALIDIXIC ACID]	DILI positive (training set)
O=C1CC[C@@]2(O)[C@H]3Cc4ccc(O)c5c4[C@@]2(CCN3CC2CC2)[C@H]1O5 [NALTREXONE]	DILI positive (training set)
CCc1nn(CCCN2CCN(c3cccc(Cl)c3)CC2)c(=O)n1CCOc1ccccc1 [NEFAZODONE]	DILI positive (test set)
COC(=O)C1=C(C)NC(C)=C(C(=O)OCCN(C)Cc2ccccc2)C1c1cccc([N+](=O)[O-])c1.Cl (stereo unspecified) [NICARDIPINE HYDROCHLORIDE]	DILI positive (training set)
COC(=O)C1=C(C)NC(C)=C(C(=O)OC)C1c1ccccc1[N+](=O)[O-] [NIFEDIPINE]	DILI positive (training set)
COCCOC(=O)C1=C(C)NC(C)=C(C(=O)OC(C)C)C1c1cccc([N+](=O)[O-])c1 (stereo unspecified) [NIMODIPINE]	DILI positive (training set)
COC(=O)C1=C(C)NC(C)=C(C(=O)OCC(C)C)C1c1ccccc1[N+](=O)[O-] (stereo unspecified) [NISOLDIPINE]	DILI negative (training set)
COC(=O)Nc1nc2ccc(C(=O)c3cccs3)cc2[nH]1 [NOCODAZOLE]	DILI negative (training set)
CN1Cc2c(N)cccc2C(c2ccccc2)C1 (stereo unspecified) [NOMIFENSINE]	DILI positive (training set)
CO[C@@H]1[C@@H](OC(N)=O)[C@@H](O)[C@H](Oc2ccc3c(O)c(NC(=O)c4ccc(O)c(CC=C(C)C)c4)c(=O)oc3c2C)OC1(C)C [NOVOBIOCIN]	DILI positive (training set)
CCCCC(CC)COC(=O)C=Cc1ccc(OC)cc1 (stereo unspecified) [OCTINOXATE]	DILI positive (test set)
CCCc1nc(C(C)(C)O)c(C(=O)O)n1Cc1ccc(-c2ccccc2-c2nnn[nH]2)cc1 [OLMESARTAN]	DILI negative (test set)
Cc1ccccc1C(OCCN(C)C)c1ccccc1.O=C(O)CC(O)(CC(=O)O)C(=O)O (stereo unspecified) [ORPHENADRINE CITRATE]	DILI negative (training set)
O=C(O)CCc1nc(-c2ccccc2)c(-c2ccccc2)o1 [OXAPROZIN]	DILI positive (test set)
CCCOc1ccc2nc(NC(=O)OC)[nH]c2c1 [OXIBENDAZOLE]	DILI positive (training set)
CC[N+](C)(CC)CCOC(=O)C(O)(c1ccccc1)C1CCCCC1 (stereo unspecified) [OXYPHENONIUM]	DILI negative (training set)
NCCC(O)(P(=O)(O)O)P(=O)(O)O [PAMIDRONIC ACID]	DILI negative (training set)
C#CCN(C)Cc1ccccc1 [PARGYLINE]	DILI negative (test set)
NC[C@@H]1O[C@H](O[C@H]2[C@@H](O)[C@H](O[C@@H]3[C@@H](O)[C@H](N)C[C@H](N)[C@H]3O[C@H]3O[C@H](CO)[C@@H](O)[C@H](O)[C@H]3N)O[C@@H]2CO)[C@H](N)[C@@H](O)[C@@H]1O.O=S(=O)(O)O [PAROMOMYCIN SULFATE]	DILI negative (training set)

Structure (SMILES)	Hepatotoxicity
Fc1ccc([C@@H]2CCNC[C@H]2COc2ccc3c(c2)OCO3)cc1 [PAROXETINE]	DILI negative (training set)
NC1=NC(=O)C(c2ccccc2)O1 (stereo unspecified) [PEMOLINE]	DILI positive (test set)
CC(C)(C)NC[C@H](O)COc1ccccc1C1CCCC1.CC(C)(C)NC[C@H](O)COc1ccccc1C1CCCC1.O=S(=O)(O)O [PENBUTOLOL SULFATE]	DILI positive (test set)
CC1(C)S[C@@H]2[C@H](NC(=O)Cc3ccccc3)C(=O)N2[C@H]1C(=O)[O-].[Na+] [PENICILLIN G SODIUM]	DILI positive (training set)
C1CCC(C(CC2CCCCN2)C2CCCCC2)CC1 (stereo unspecified) [PERHEXILINE]	DILI positive (training set)
CC1(C)C(C=C(Cl)Cl)C1C(=O)OCc1cccc(Oc2ccccc2)c1 (stereo unspecified) [PERMETHRIN]	DILI negative (test set)
CCOc1ccc(NC(C)=O)cc1 [PHENACETIN]	DILI positive (training set)
Cl.Nc1ccc(/N=N/c2ccccc2)c(N)n1 [PHENAZOPYRIDINE HYDROCHLORIDE]	DILI positive (training set)
c1ccc2c(c1)Nc1ccccc1S2 [PHENOTHIAZINE]	DILI positive (test set)
CC(COc1ccccc1)N(CCCl)Cc1ccccc1.Cl (stereo unspecified) [PHENOXYBENZAMINE HYDROCHLORIDE]	DILI negative (training set)
CS(=O)(=O)O.Cc1ccc(N(CC2=NCCN2)c2cccc(O)c2)cc1 [PHENTOLAMINE MESYLATE]	DILI positive (training set)
S=C=Nc1ccccc1 [PHENYLISOTHIOCYANATE]	DILI positive (test set)
CC(N)C(O)c1ccccc1.Cl (stereo unspecified) [PHENYLPROPANOLAMINE HYDROCHLORIDE]	DILI negative (training set)
CNC(=O)Oc1ccc2c(c1)[C@]1(C)CCN(C)[C@@H]1N2C [PHYSOSTIGMINE]	DILI negative (training set)
CC[C@@H]1C(=O)OC[C@@H]1Cc1cncn1C [PILOCARPINE]	DILI negative (training set)
O=c1[nH]c2ccccc2n1C1CCN(CCCC(c2ccc(F)cc2)c2ccc(F)cc2)CC1 [PIMOZIDE]	DILI negative (test set)
CC(N/C(=N\C#N)Nc1ccncc1)C(C)(C)C (stereo unspecified) [PINACIDIL ANHYDROUS]	DILI negative (training set)
CC(C)NCC(O)COc1cccc2[nH]ccc12 (stereo unspecified) [PINDOLOL]	DILI negative (training set)
CCc1ccc(CCOc2ccc(CC3SC(=O)NC3=O)cc2)nc1 (stereo unspecified) [PIOGLITAZONE]	DILI negative (test set)

same assay, conditions: Liver

Structure (SMILES)	Hepatotoxicity
CC1(C)S[C@@H]2[C@H](NC(=O)[C@H](NC(=O)N3CCN(S(C)(=O)=O)C3=O)c3ccccc3)C(=O)N2[C@H]1C(=O)[O-].[Na+] [MEZLOCILLIN SODIUM]	DILI positive (test set)
COc1ccc2cc([C@H](C)C(=O)O)ccc2c1 [NAPROXEN]	DILI negative (test set)
O=C1CN(/N=C/c2ccc([N+](=O)[O-])o2)C(=O)N1 [NITROFURANTOIN]	DILI positive (test set)
C#CC1(O)CC[C@H]2[C@@H]3CCC4=CC(=O)CC[C@@H]4[C@H]3CC[C@@]21CC (stereo partly specified) [NORGESTREL]	DILI positive (training set)
CNCCC=C1c2ccccc2CCc2ccccc21.Cl [NORTRIPTYLINE HYDROCHLORIDE]	DILI positive (training set)
O=S(=O)(O)O.Oc1cccc2cccnc12.Oc1cccc2cccnc12 [OXYQUINOLINE SULFATE]	DILI positive (test set)
CC(=O)O[C@H]1C(=O)[C@@]2(C)[C@H]([C@H](OC(=O)c3ccccc3)[C@]3(O)C[C@H](OC(=O)[C@H](O)[C@@H](NC(=O)c4ccccc4)c4ccccc4)C(C)=C1C3(C)C)[C@]1(OC(C)=O)CO[C@@H]1C[C@@H]2O [PACLITAXEL]	DILI positive (test set)
NNCCc1ccccc1 [PHENELZINE]	DILI negative (training set)
O=C1NC(=O)C(c2ccccc2)(c2ccccc2)N1 [PHENYTOIN]	DILI positive (training set)
